The values that follow come from ChEMBL document CHEMBL5260810, “Inhibition of bromodomain-containing protein 9 for the prevention of epigenetically-defined drug resistance” (Bioorg Med Chem Lett, 2017).

Each structure is given as a SMILES string. The source made the active and inactive calls. The rule behind the calls is not given here.

Common to all, as to format: functional, cell-based
Assay [1] can be described thus: Cytotoxicity against human RKN cells measured after 3 days. The conditions noted are these: 72 h.
Assay [2] in a line: Cytotoxicity against human OVTOKO cells measured after 3 days. The conditions noted are these: 72 h.
The subject of a further assay is TK-10. Briefly: Cytotoxicity against human TK-10 cells measured after 3 days. The conditions noted are these: TK-10, 72 h.
The test system of the next assay is T98G. In words: Cytotoxicity against human T98G cells measured after 3 days. The conditions noted are these: 72 h.
Another assay concerns KMS-12-BM. In words: Cytotoxicity against human KMS-12-BM cells measured after 3 days. The note with it: 72 h.
Assay [3] can be described thus: Cytotoxicity against human JHH-1 cells measured after 3 days. The conditions noted are these: JHH1, 72 h.
In a further assay the test system is OVCAR-4. Briefly: Cytotoxicity against human OVCAR-4 cells measured after 3 days. The note with it: OVCAR-4, 72 h.
The subject of the next assay is LN-18. In words: Cytotoxicity against human LN-18 cells measured after 3 days. The note with it: LN-18, 72 h.
In another assay the test system is EJM. In words: Cytotoxicity against human EJM cells measured after 3 days. The note with it: 72 h.
Another assay deals with MFM-223. In words: Cytotoxicity against human MFM-223 cells measured after 3 days. The note with it: MFM-223, 72 h.
Assay [4] can be described thus: Cytotoxicity against human HS-Sultan cells measured after 3 days. The conditions noted are these: 72 h.
For another assay, the system named is BT-549. Briefly: Antiproliferative activity against human BT-549 cells assessed as reduction in colony formation up to 20 uM supplemented with fresh medium containing compound every 3 days for 9 days by MTT staining based clonogenic assay. The note with it: time 9.0 day.

On to `C/C=C/Cn1cc(-c2cc(OC)c(C(=O)N3CCOCC3)cc2OC)c2cc(C)[nH]c2c1=O`, for which the half-maximal inhibitory concentration (IC50) (in assay [1]; in assay [2]; with TK-10; in the assay on T98G; in the assay with KMS-12-BM; in assay [3]) was 5 µM each time. The IC50 (in the assay with OVCAR-4; with LN-18; in the assay with EJM; in the assay with MFM-223; in assay [4]) was 5 µM each time.

On to `C/C=C/Cn1cc(-c2ccc(C(C)(C)O)cc2OC)c2cc[nH]c2c1=O`, for which, in the assay with BT-549, the outcome was inactive.
